# Values joined by “and” are separate entries in the source; they are usually repeats but may differ in a detail not shown here. Equal values may be shown once.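 All cell lines were grown in 96-well plates and treated with compound for 48 hours. The concentration for 50% growth inhibition is given as GI50. TGI denotes the concentration required for complete inhibition of growth.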
# Key:
# Assay in all cases: growth of human tumour cells (NCI), 48 h
# 786-0 renal = system: 786-0 renal
# A498 renal = system: A498 renal
# EKVX NSCLC = system: EKVX NSCLC
# HT29 colon = system: HT29 colon
# IGROV1 ovarian = system: IGROV1 ovarian
# M14 melanoma = system: M14 melanoma
# NCI-H23 lung = system: NCI-H23 lung
# NCI-H460 lung = system: NCI-H460 lung
# SF-295 CNS = system: SF-295 CNS
# SK-MEL-2 melanoma = system: SK-MEL-2 melanoma
Compound,TGI (786-0 renal) [µM],TGI (A498 renal) [µM],TGI (EKVX NSCLC) [µM],TGI (HT29 colon) [µM],TGI (IGROV1 ovarian) [µM],TGI (M14 melanoma) [µM],TGI (NCI-H23 lung) [µM],TGI (NCI-H460 lung) [µM],TGI (SF-295 CNS) [µM],TGI (SK-MEL-2 melanoma) [µM],GI50 (786-0 renal) [µM],GI50 (A498 renal) [µM],GI50 (EKVX NSCLC) [µM],GI50 (HT29 colon) [µM],GI50 (IGROV1 ovarian) [µM],GI50 (M14 melanoma) [µM],GI50 (NCI-H23 lung) [µM],GI50 (SF-295 CNS),GI50 (SK-MEL-2 melanoma) [µM],GI50 (NCI-H460 lung) [µM]
Cc1cccc(C)c1NC(=O)/C(=N/NC(N)=S)C(C)C(=O)c1ccc(Cl)cc1 (centres undefined),> 100,> 100,> 100,> 100,> 100,> 100,> 100,> 100,> 100,> 100,,,,,,,,,,
CC(=O)OC12C=C(C)C(C(C)C1)C1C(=O)N(CCN3CCOCC3)C(=O)C12 (centres undefined),> 100,> 100,> 100,> 100,> 100,> 100,> 100,,> 100,> 100,> 100,> 100,> 100,> 100,> 100,> 100,> 100,> 100 µM,> 100,
O=S(=O)(c1ccc(Cl)cc1)C(Cl)(Cl)Cl,18.1,13,> 21.4,22.5,23.5,4.32,17.7,17,23,19.9,0.968,1.15,4.68,2.85,3.08,1.63,2.69,5.3 µM,3.05,3.79
O=C1c2cccnc2C(=O)c2c1c(C(=O)NCCCN1CCCCC1)c1ccccn21,8.06,3.23,3.2,2.92,3.62,2.44,2.75,1.46,8.45,5.17,1.18,1.54,1.37,0.391,1.23,1.15,0.436,0.845 µM,2.05,0.299
Fc1ccc(/C=N/n2c(-c3ccc(F)c(Cl)c3)nn(CNc3ccccc3C(F)(F)F)c2=S)cc1,> 100,63.7,> 100,> 100,> 100,> 100,> 100,> 100,> 100,> 100,75.4,12.5,37.2,94.4,83.6,43.1,61.7,42.6 µM,46.6,43.3
CCCN(CCS(C)(=O)=O)Cc1ccc(-c2ccc3ncnc(Nc4ccc(OCc5cccc(F)c5)c(Cl)c4)c3c2)o1,> 25,> 25,> 25,> 25,> 25,> 25,> 25,> 25,> 25,> 25,> 25,> 13.6,0.195,> 25,16.5,> 25,> 25,> 25 µM,> 25,> 25
COc1ccccc1-c1cc(=O)c2cc(C)cnc2[nH]1,> 100,79.2,> 100,84.5,> 100,> 100,> 100,> 100,> 100,> 100,41.4,,,,,,,31.1 µM,,32.6
CN1CCN(C(=O)c2cc(-c3ccc4ncnc(N5CCc6cc(F)c(Cl)cc65)c4c3)cnc2N)CC1,1.73,0.361,1.55,4.57,0.595,4.75,5.66,9.14,1.84,1.02,0.22,0.104,0.232,0.216,0.0467,0.338,0.31,0.288 µM,0.238,0.224
NC(=O)c1csc(C2OC(CO)C(O)C2O)n1 (centres undefined),3460,> 9690,5940,> 10000,5650,5650,5250,> 10000,> 8180,6440,15.5,,,45.9,> 72.8,10.2,52.3,> 43.9 µM and 13.6 µM,,
CC(=O)/C=C/c1cn(C(=O)OC(C)(C)C)c2ccc(Br)cc12,25.3,39.7,84.3,24.8,39.5,> 100,42,36.4,28.8,54.6,11.8,20.1,24.5,10.6,15.9,30.1,19.8,14.1 µM,20.9,17
O=S(=O)(Nc1cc(Sc2cccc3cccnc23)c(O)c2ccccc12)c1ccc(F)cc1,6.85,24.1,6.5,6.59,4.2,3.53,4.32,11,12.8,7.52,1.19,3.96,1.41,1.84,1.06,1.27,1.46,3.34 µM,1.84,0.59
COc1cc(C(=O)C/C(CCC(=O)Nc2ccccc2[N+](=O)[O-])=N\NC(N)=O)ccc1O,> 100,> 100,> 100,> 100,> 100,> 100,> 100,> 100,> 100,> 100,,,,,,,,,,
COc1ccc2c(c1)N(CCO)C1=C(C(=O)OC1)C2c1cccc(F)c1 (centres undefined),> 50,2.12,> 50,> 19.8,> 50,> 50,> 50,> 50,> 50,> 36.2,0.644,0.157,1.34,0.23,0.433,0.285,1.8,0.196 µM,0.801,0.227
Fc1ccc(C2SCc3nc4ccccc4n32)c(F)c1 (centres undefined),> 100,> 100,> 100,> 100,> 100,> 100,> 100,> 100,> 100,> 100,,,,,,,,,,
CCc1ccc2c(c1)N(CCO)C1=C(C(=O)OC1)C2c1cccc(Br)c1 (centres undefined),14.7,8.84,20.6,4.36,25.9,10.8,15.6,11.9,13.2,7.14,0.617,0.373,2.45,0.342,2.56,0.525,0.66,0.374 µM,0.3,0.397
COc1ccc(-c2nc(Nc3cc(C)[nH]n3)c3ccccc3n2)cc1,> 31.3,1.46,,5.15,7.12,31.4,> 100,> 100,> 71.4,40.6,1.27,0.271,,1.19,0.686,0.75,5.47,2.61 µM,0.44,3.1
O=C1OC(Cc2ccccc2)(N2CCCC2=O)C1c1ccccc1 (centres undefined),> 100,> 100,> 100,> 100,,> 100,> 100,> 100,> 100,> 100,,,,,,,,,,
CN(C)CCCn1c(=O)c2ccccc2c2ccccc21,> 100,30.6,44.9,33.4,,29.6,46,25.8,32.8,33.5,12.5,15.7,13.6,5.74,,14.4,17.6,7.69 µM,16.5,7.55
O=c1nc(NC2CCCCO2)ccn1CCO (centres undefined),> 100,> 100,> 100,> 100,> 100,> 100,,> 100,> 100,> 100,,,,,,,,,,
O=C(/C=C/c1cc2ccccc2[nH]c1=O)/C=C/c1cc2ccccc2[nH]c1=O,> 26.1,> 100,> 100,,> 49.3,,48.9,> 100,> 86.2,> 30.6,,> 50.1,22.5,,> 19.7,,9.25,> 25.3 µM,> 24.7,32.3
OCc1ccc(N2CCCC2c2ccccc2)cc1Cl (centres undefined),28.4,0.306,,14.3,0.813,21.3,30,7.22,7.77,6.97,11.5,0.136,,3.37,0.187,5.24,5.51,2.34 µM,2.31,0.833
COc1cc2c(cc1C1COc3cc4occc4cc3C1=O)OCO2 (centres undefined),> 100,> 100,> 100,> 100,> 100,> 100,> 100,,> 100,> 100,,,,,,,,,,
COc1ccc2cc1Oc1ccc(cc1)C[C@H]1c3c(cc4c(c3Oc3cc5c(cc3OC)CCN(C)[C@@H]5C2)OCO4)CCN1C,12,12.1,18,2.56,12.9,1.76,13.5,9.03,,11.2,5.57,5.93,8.47,0.237,5.42,0.903,5.44,,4.13,2.82
N#CC(=C1C=CC(=NO)C=C1)c1ccc(Cl)cc1,5.69,> 100,,22.9,56.1,41.5,75.3,56.4,48,20.2,,,,,,,,,,
C1CCC([PH+](C2CCCCC2)C2CCCCC2[PH+](C2CCCCC2)C2CCCCC2)CC1.[Au].[CH-]1CCCCC1CC1CCCC[N-]1 (centres undefined),2.02,0.673,1.97,1.98,,1.27,,1.09,1.28,1.38,0.518,0.145,0.302,0.342,,0.297,,0.305 µM,0.398,0.303
N#Cc1c(N2CCOCC2)nc(=S)[nH]c1-c1ccco1,80.8,7.23,78.7,> 100,13,> 100,> 100,> 100,,33.6,6.2,1.19,5.99,9.56,1.86,12.2,12.1,,2.38,4.4
N#CC(C#N)=C1NC(=O)CC(=O)N1,> 100,> 100,> 100,> 100,> 100,> 100,> 100,> 100,> 100,,,,,,,,,,,
N#CC1(C(N)=O)C(c2ccc(Cl)cc2)CC(=O)CC1c1ccc(Cl)cc1 (centres undefined),30.8,27.8,32.7,29.5,33.7,29.7,,33.4,33.4,31.1,17.1,14.7,15.5,15.5,18.1,16.2,,15 µM,16.1,17.4
CNCCCNCCCCNCCCN1C(=O)c2ccc3c4c(ccc(c24)C1=O)C(=O)N(CCCNCc1ccccc1OC)C3=O,29.8,13.3,,16.4,19,13.3,19.1,12.1,12.8,18.8,3.36,1.78,,3.36,3.02,2.63,2.99,1.33 µM,4.46,2.53

# — PubChem BioAssay (NCI)
